Patent publication US20240180889A1, “COMBINATION THERAPY FOR COVID-19 VACCINATION” (priority 2021, published 2024)

Key:
MDA-MB-231 cells = assay type: cell-based, human
[1] = test system: Tartrate Resistant Acid Phosphatase (TRAP) activity in RAW-OC cells; assay type: cell-based, mouse
MCF-7 cells = assay type: cell-based

Compound | cell proliferation (BrdU) (MDA-MB-231 cells) | activity of TRAP [1] | effect on proliferation promoting activity of 17β-estradiol and spike (MCF-7 cells) | effect on the estradiol- or spike-induced decrease in TRAP activity [1]
C[C@]12CC[C@@H]3c4ccc(O)cc4CC[C@H]3[C@@H]1CC[C@@H]2O [17β-estradiol] | do not significantly affect cell proliferation | superimposable decrease |  | 
O=C(c1ccc(OCCN2CCCCC2)cc1)c1c(-c2ccc(O)cc2)sc2cc(O)ccc12 [Raloxifene, raloxifene] |  |  | blocked | blocked
